According to patent US20200038418A1, “METHODS OF TREATING AUTISM SPECTRUM DISORDER USING AMINOSTEROL COMPOSITIONS” (Enterin, Inc., priority 2018, published 2020):
Several values for one entry are separate records, joined by “and”; a condition that tells them apart may be missing. Equal entries are not always repeated.

Columns and labels:
[1] = tested on: patients with PD and constipation; experiment: Stage 2 bowel function, stool related indices; assay type: in vivo, human; settings: Stage 2, fixed dose, n = 34
Experimental: Following successful screening, all subjects underwent a 14-day run-in period where the degree of constipation was assessed through a validated daily log (Zinsmeister et al., 2013) establishing baseline CSBMs/week. Subjects with an average of <3 CSBMs/week proceeded to dosing.
(§1) In Stage 2, 34 patients were evaluated.
The primary efficacy outcome variable was whether or not a subject was a “success” or “failure.” This is an endpoint based on subject diary entries for the “fixed dose” period prior to the endpoint assessment defined as average complete stool frequency increase by 1 or more over baseline, or 3 or more complete spontaneous stools/week. The subject was deemed a “success” if s/he met one or more of the criteria listed above, otherwise the subject was deemed a “failure.” The primary analysis was based on all subjects with a baseline assessment and an assessment at the end of the “fixed-dose” period and was a comparison of the proportion of successes with 0.10 (the null hypothesis corresponding to no treatment effect).

[2] = tested on: patients with PD and constipation; experiment: Circadian rhythm of wrist skin temperature; assay type: in vivo, human
Experimental: (6) I-Button Temperature Assessment. The I-Button is a small, rugged self-sufficient system that measures temperature and records the results in a protected memory section. The Thermochron I-Button DS1921H (Maxim Integrated, Dallas, Tex.) was used for skin temperature measurement. I-Buttons were programmed to sample every 10 mins., and attached to a double-sided cotton sport wrist band using Velcro, with the sensor face of the I-Button placed over the inside of the wrist, on the radial artery of the dominant hand. Subjects removed and replaced the data logger when necessary (i.e., to have a bath or shower). The value of skin temperature assessment in sleep research is that the endogenous skin warming resulting from increased skin blood flow is functionally linked to sleep propensity. From the collected data, the mesor, amplitude, acrophase (time of peak temperature), Rayleight test (an index of interdaily stability), mean waveforms are calculated);
Assessments were made at baseline and at the end of the fixed dose and washout periods. Circadian system status was evaluated by continuously monitoring wrist skin temperature (Thermochron iButton DS1921H; Maxim, Dallas) following published procedures (Sarabia et al. 2008).
Circadian rhythm of skin temperature was evaluable in 12 patients (i.e., those who had recordings that extended from baseline through washout). Circadian system functionality was evaluated by continuously monitoring wrist skin temperature using a temperature sensor (Thermochron iButton DS1921H; Maxim, Dallas, Tex.) (Sarabia et al. 2008). A nonparametric analysis was performed for each participant to characterize DST as previously described (Sarabia et al. 2008; Ortiz-Tudela et al. 2010).
Briefly, this analysis includes the following parameters: (i) the inter-daily stability (the constancy of 24-hour rhythmic pattern over days, IS); (ii) intra-daily variability (rhythm fragmentation, IV); (iii) average of 10-minute intervals for the 10 hours with the minimum temperature (L10); (iv) average of 10-minute intervals for the 5 hours with the maximum temperature (M5) and the relative amplitude (RA), which was determined by the difference between M5 and L10, divided by the sum of both. Finally, the Circadian Function Index (CFI) was calculated by integrating IS, IV, and RA. Consequently, CFI is a global measure that oscillates between 0 for the absence of circadian rhythmicity and 1 for a robust circadian rhythm (Ortiz-Tudela et al., 2010).

[3] = tested on: C. elegans model of PD; settings: C. elegans model of PD in vivo; cited from earlier work
[4] = biological target: αS (Homo sapiens, UniProt P37840); settings: in vitro; cited from earlier work
[5] = Phase 2 trial Stage 1, adverse events; assay type: in vivo, human; settings: Stage 1 (10 dosed), single oral doses
Description: Tolerability limits included diarrhea or vomiting.

[6] = Phase 2 trial Stage 2, adverse events; assay type: in vivo, human
Experimental: as §1

[7] = Solubility in water; assay type: physicochemical; settings: pH<3.5 (the pH of gastric fluid)
[8] = fixed dose vs baseline, 12 patients
[9] = Stage 2 (34 dosed), daily oral dosing
[10] = Stage 2 (34 dosed), daily oral dosing, unrelated to ENT-01

Compound: CC(C)[C@@H](CC[C@@H](C)[C@H]1CC[C@H]2[C@@H]3[C@H](O)C[C@H]4C[C@@H](NCCCNCCCCN)CC[C@]4(C)[C@H]3CC[C@]12C)OS(=O)(=O)O (single isomer, unassigned) [squalamine (ENT-01), squalamine]
- CSBM, weekly average (mean, SD) [1]: 3.8 CSBM/week and 3.8 (2.40) CSBM/week
- PAC-SYM (mean, SD) [1]: 1.1 (0.49)
- Suppository use / rescue medication, weekly average (mean, SD) [1]: 0.3 /week
- Consistency, Bristol stool scale 1-7 (mean, SD) ([1]; listed as aminosterol): 4.1
- Ease of passage, Ease of evacuation scale (mean, SD) ([1]; listed as aminosterol): 3.7
- circadian function index (CFI) [2, 8]: increasing
- relative amplitude (RA) [2, 8]: increasing
- rhythm fragmentation (intra-daily variability, IV) [2, 8]: reducing
- rhythm stability (inter-daily stability, IS) [2, 8]: increasing
- impact on the circadian rhythm of skin temperature ([2]; oral administration, 12 patients with evaluable data): significant positive impact
- circadian function index (CFI) ([2]; wash-out period, 12 patients): improvement persisted
- rhythm stability (IS) ([2]; wash-out period, 12 patients): improvement persisted
- formation of aggregates of αS [3]: inhibit the formation of aggregates of αS
- formation of aggregates of αS [4]: inhibit the formation of aggregates of αS
- Abdominal pain, Mild [5]: 2(20) n, %
- Abdominal pain, Moderate [5]: 3(30) n, %
- Blood in urine, Moderate [5]: 0 n, %
- Diarrhea, Mild [5]: 1(10) n, %
- Diarrhea, Moderate [5]: 3(30) n, %
- Diarrhea, Severe [5]: 0 n, %
- Difficulty falling asleep, Mild [5]: 0 n, %
- Difficulty falling asleep, Moderate [5]: 0 n, %
- Dizziness, Mild [5]: 0 n, %
- Dizziness, Moderate [5]: 0 n, %
- Eye infection, Mild [5]: 0 n, %
- Eye infection, Moderate [5]: 0 n, %
- Flatulence, Mild [5]: 2(20) n, %
- Flatulence, Moderate [5]: 0 n, %
- Headache, Mild [5]: 1(10) n, %
- Headache, Moderate [5]: 0 n, %
- Increased urinary frequency, Mild [5]: 0 n, %
- Increased urinary frequency, Moderate [5]: 0 n, %
- Loss of appetite, Moderate [5]: 0 n, %
- Lower GI bleed, Severe [5]: 0 n, %
- Nausea, Mild [5]: 4(40) n, %
- Nausea, Moderate [5]: 0 n, %
- Skin lesions-rash, Mild [5]: 0 n, %
- Skin lesions-rash, Moderate [5]: 0 n, %
- Urinary retention, Mild [5]: 0 n, %
- Urinary retention, Moderate [5]: 0 n, %
- Urinary tract infection, Mild [5]: 0 n, %
- Urinary tract infection, Moderate [5]: 0 n, %
- Vomiting, Mild [5]: 1(10) n, %
- Vomiting, Moderate [5]: 0 n, %
- Worsening acid reflux, Mild [5]: 0 n, %
- Worsening acid reflux, Moderate [5]: 0 n, %
- Worsening hemorrhoid, Mild [5]: 0 n, %
- Worsening hemorrhoid, Moderate [5]: 0 n, %
- Blood in urine, Mild ([5]; unrelated to ENT-01): 1(10) n, %
- Loss of appetite, Mild ([5]; unrelated to ENT-01): 1(10) n, %
- Abdominal pain, Mild [6, 9]: 4(11.7) n, %
- Abdominal pain, Moderate [6, 9]: 2(5.8) n, %
- Blood in urine, Moderate [6, 9]: 0 n, %
- Diarrhea, Mild [6, 9]: 12(35) n, %
- Diarrhea, Moderate [6, 9]: 2(5.8) n, %
- Diarrhea, Severe [6, 9]: 1(2.9) n, %
- Difficulty falling asleep, Mild [6, 9]: 1(3) n, %
- Difficulty falling asleep, Moderate [6, 9]: 0 n, %
- Dizziness, Mild [6, 9]: 7(20.5) n, %
- Dizziness, Moderate [6, 9]: 1(2.9) n, %
- Eye infection, Mild [6, 9]: 1(3) n, %
- Eye infection, Moderate [6, 9]: 0 n, %
- Flatulence, Mild [6, 9]: 1(3) n, %
- Flatulence, Moderate [6, 9]: 0 n, %
- Headache, Mild [6, 9]: 3(8.8) n, %
- Headache, Moderate [6, 9]: 0 n, %
- Increased urinary frequency, Mild [6, 9]: 2(5.8) n, %
- Increased urinary frequency, Moderate [6, 9]: 0 n, %
- Loss of appetite, Moderate [6, 9]: 0 n, %
- Nausea, Mild [6, 9]: 18(52) n, %
- Nausea, Moderate [6, 9]: 1(2.9) n, %
- Skin lesions-rash, Mild [6, 9]: 3(8.8) n, %
- Skin lesions-rash, Moderate [6, 9]: 0 n, %
- Urinary retention, Mild [6, 9]: 1(3) n, %
- Urinary retention, Moderate [6, 9]: 0 n, %
- Urinary tract infection, Mild [6, 9]: 1(3) n, %
- Urinary tract infection, Moderate [6, 9]: 2(5.8) n, %
- Vomiting, Mild [6, 9]: 2(5.8) n, %
- Vomiting, Moderate [6, 9]: 0 n, %
- Worsening acid reflux, Mild [6, 9]: 4(11.7) n, %
- Worsening acid reflux, Moderate [6, 9]: 0 n, %
- Worsening hemorrhoid, Mild [6, 9]: 1(3) n, %
- Worsening hemorrhoid, Moderate [6, 9]: 0 n, %
- Blood in urine, Mild [6, 10]: 0 n, %
- Loss of appetite, Mild [6, 10]: 0 n, %
- Lower GI bleed, Severe ([6]; Stage 2, daily oral dosing, colonic diverticulosis, polyp, patient on aspirin, Plavix and naproxen, unrelated to ENT-01): 1(2.5) n, %
- dissolution [7]: readily dissolves
